The text below walks through data of US11136613B2, “Antibacterial polypeptide libraries and methods for screening the same” (priority 2015, dated 2021).

Holding throughout (assay type): cell-based
The test system of one experiment is A. baumannii. Description: Surface expression of 2× tether+cecropin P1 or HA in A. baumannii. The note with it: 2× tether surface expression. An excerpt: FIG. 3: Surface expression of 2× tether+cecropin P1 or HA in A. baumannii. Addition of IPTG leads to rapid lysis of cecropin P1 containing A. baumannii.
The platform uses a plasmid with a broad host range origin of replication offering flexibility to identify antimicrobial peptides in many gram-negative bacteria. For example, A. baumannii is a gram-negative, hospital-associated pathogen that quickly acquires antibiotic resistance. […] The selective marker on this plasmid can be changed to allow its use in bacteria with different antibiotic resistant profiles.

The next experiment concerns E. coli strain WD101. The note with it: surface displayed peptide, 2× tether, 0.1 mM IPTG.
The next experiment relates to E. coli. Description: Co-culture of 2× tether+cecropin P1 expressing E. coli and empty vector E. coli, CFU plating and plasmid qPCR. The note with it: 3 hours. In general terms: Real-time PCR tracks product formation cycle by cycle.
The test system of experiment [1] is wild type E. coli strain W3110. As to conditions: for cell lysis measured by decrease in culture optical density after IPTG induction: surface displayed peptide, E. coli W3110, IPTG added.

On to “cecropin P1 (SWLSKTAKKLENSAKKRISEGIAIAIQGGPR; Cecropin-P1; UniProt P14661 14-44, looked up) [known antimicrobial peptide that lyses many gram-negative bacteria through disruption of the outer membrane; positive control]”, for which the “lysis of A. baumannii after addition of IPTG” value with A. baumannii is “rapid lysis”. For the same substance, the “cell lysis in resistant strain WD101 compared with parental strain W3110” value in the experiment with E. coli strain WD101 is listed as “less cell lysis”. The “difference in recoverable colony forming units between peptide expressing and control bacteria” value with E. coli (co-culture in equal ratio, 0.1 mM IPTG) was 2-3 log. The “decrease of ratio of peptide encoding plasmid to empty vector (qPCR)” value with E. coli (co-culture, 0.1 mM IPTG induction) is recorded as roughly 50 fold. For the same substance, the “cell lysis measured by decrease in culture optical density after IPTG induction” value in experiment [1] is given as “begin to lyse”. Further, the “efficiency of cell lysis depending on tether” value in experiment [1] (two (2×) tandem low-complexity-region protein tethers, versus 0 and 1× tether, 0.1 mM IPTG) was “most efficient lysis”.
In the case of Dermaseptin, in experiment [1], the “cell lysis measured by decrease in culture optical density after IPTG induction” value was “same impact on cell growth”.
